From EP0528458A1, “Method for controlling dental tartar using phosphopeptides and compositions for use therein” (UNILEVER N.V., priority 1991, dated 1993)
Like-named read-outs stand apart in the source and are kept apart here.

Tests used:
[1] = no Na CPP
Method: Comparative in vitro experiments were carried out using a Seeded Crystal Growth Inhibition Assay. This assay involved the treatment of synthetic hydroxyapatite with the anti-tartar agent to be tested. The hydroxyapatite, treated with the anti-tartar agent was incubated at 37°C in a calcifying solution made up of calcium and phosphate at 1.5 mM and 4.5 mM respectively, pH 7.4. The samples were filtered to remove any calcium phosphate crystals and the free calcium in the filtrate was measured using Atomic Absorption Spectroscopy. The percent inhibition was calculated as follows: [formula]
The % inhibition is a measure of the degree of inhibition of calcium phosphate precipitation by the anti-tartar agent. The anti-tartar agents tested were: 1) tetrasodium pyrophosphate, Na₄P₂O₇ and 2) combinations of Na₄P₂O₇ and sodium caseinphosphopeptide, Na CPP, prepared as described above, which is a mixture rich in phosphopeptides of SEQ ID NO:1 and SEQ ID NO:2.
Experiments were carried out using a Seeded Crystal Growth Inhibition Assay described in Example 1. % inhibition was measured for NaCPP/Zinc sulphate mixtures.

[2] = system: Streptococcus sobrinus 6715-14; conditions: 1.5% pyrophosphate anion; versus deionized water control
Method: A Microbial Mineralization Assay was carried out. Standard glass rods (3mm x 50mm) were attached to a circular piece of rubber and attached to a vial cap. The surface of the rods was etched. The rods were placed in a growth medium containing sucrose and Streptococcus sobrinus 6715-14. The microbe was grown on the rods for 24 hours at 37°C. The rods were then placed into a fresh growth medium for another 24 hours at 37°C. The rods were then taken out and treated with the anti-tartar agent to be tested. Treatment with only deionized water was used as control. The rods were then placed in a calcifying solution made up of a calcium and phosphate at levels of 1.5 mM and 5.0 mM respectively, at pH 7.4, supplemented with human saliva (about 25%). Six hours later, the treatment with the anti-tartar agent was repeated, and glass rods were placed in a calcifying solution. The procedure was continued for the next three days.
The rods were then removed from the calcifying solution, rinsed with water and placed in 0.6 N HCl solution. The solution containing the rods was heated at 60°C for 2 hours to dissolve calcified salts. The resulting acidic solution was filtered over 0.8 µm nylon membrane. The level of mineral formation was assessed via calcium and phosphorus analysis. The results were calculated by comparing the % reduction of mineral formation to that of the control.

Row | SMILES | % Inhibition ([1]; Na4 P2 O7 0.1 mM) [%] | % Inhibition ([1]; Na4 P2 O7 0.15 mM) [%] | % Inhibition ([1]; Na4 P2 O7 0.2 mM) [%] | % reduction of mineral formation [2] [%]
1 | O=P([O-])([O-])OP(=O)([O-])[O-].[Na+].[Na+].[Na+].[Na+] [Na4 P2 O7, tetrasodium pyrophosphate] | 14 | 24 | 54 | –
2 | O=P(O)(O)OP(=O)(O)O [pyrophosphate anion] | – | – | – | 32
